In patent US11618747B2, “LXR modulators with bicyclic core moiety” (OrsoBio, Inc., priority 2018, dated 2023):

Key:
full length (FL) LXRβ = target: T1, full length (FL) LXRβ (Homo sapiens, UniProt P55055, DUP175-175); assay: LXR Gal4 reporter transient transfection assay (FL-M2H Gal4β); assay type: cell-based; details: HEK293 cells, full length LXRβ; read-out: FL-M2H Gal4β (EC50 range)
T1 construct: the full length (FL) proteins of LXRα (amino acids 1-447); NP005684; NP009052; expressed in transfected cells; host or cells: HEK293
T1 sequence (P55055 with tags, fused parts or gaps DUP175-175): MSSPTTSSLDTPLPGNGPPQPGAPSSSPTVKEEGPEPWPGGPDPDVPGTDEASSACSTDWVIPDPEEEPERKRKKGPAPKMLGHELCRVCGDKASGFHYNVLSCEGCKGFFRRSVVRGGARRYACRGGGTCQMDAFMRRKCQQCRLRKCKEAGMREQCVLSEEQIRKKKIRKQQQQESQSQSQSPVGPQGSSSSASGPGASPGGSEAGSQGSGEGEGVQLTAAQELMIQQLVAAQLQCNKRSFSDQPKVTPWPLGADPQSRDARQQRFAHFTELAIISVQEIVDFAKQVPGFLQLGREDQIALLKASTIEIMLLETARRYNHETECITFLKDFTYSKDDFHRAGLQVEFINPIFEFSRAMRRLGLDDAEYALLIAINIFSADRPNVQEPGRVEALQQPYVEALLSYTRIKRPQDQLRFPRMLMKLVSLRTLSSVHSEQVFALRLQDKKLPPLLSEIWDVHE
Summary of the method: (§1)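 Cells (HEK293, 3.5×10^4/well) were plated 16-20 h, transfected with LXR, cofactor and reporter plasmids, treated with compound after 4 h, and lysed after a further 16 h. Interaction of LXR constructs with SRC1 or NCoR is detected by GAL4-driven Firefly luciferase.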

[1] = target: T2, LXRβ ligand-binding domain (Homo sapiens, UniProt P55055, DUP175-175); assay: TR-FRETβ activity assay (NCoA3 coactivator peptide recruitment); assay type: biochemical; details: TR-FRET, 1 μM 24(S)-25-epoxycholesterol prestimulation; read-out: FRETβ (EC50 range)
T2 construct: amino acids 156-461; NP009052; made in house; host or cells: E. coli
T2 sequence (P55055 with tags, fused parts or gaps DUP175-175 limits assumed): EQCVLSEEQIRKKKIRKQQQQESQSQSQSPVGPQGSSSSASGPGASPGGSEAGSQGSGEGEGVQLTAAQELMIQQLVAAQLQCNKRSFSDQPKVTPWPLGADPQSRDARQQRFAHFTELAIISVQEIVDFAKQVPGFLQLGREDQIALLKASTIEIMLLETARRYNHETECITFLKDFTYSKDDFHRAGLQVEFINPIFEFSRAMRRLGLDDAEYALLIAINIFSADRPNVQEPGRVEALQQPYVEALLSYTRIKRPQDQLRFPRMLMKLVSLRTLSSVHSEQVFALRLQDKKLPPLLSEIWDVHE
Summary of the method: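 Inverse agonism assessed by loss of coactivator recruitment, read as TR-FRET 665/615 nm after 1 h equilibration at 4 °C, in triplicate. Ten-point titration from 50 μM to 0.002 μM against LXRβ LBD (76 nM, GST fusion) prestimulated with 1 μM 24(S)-25-epoxycholesterol, with 400 nM NCoA3 peptide, pH 6.8. Sulfonyl acetic acids kept as 20 mM DMSO stocks with 100 mM TFA.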

[2] = Short term HFD mouse model: plasma and liver exposure; assay type: in vivo, mice (C57BL/6J); details: HFD mice, three oral doses of 20 mg/kg, 4 h after last dose
Procedure: Short Term HFD Mouse Model:
The in vivo transcriptional regulation of several LXR target genes by LXR modulators was assessed in mice.
For this, C57BL/6J were purchased from Elevage Janvier (Rennes, France) at the age of 8 weeks. After an acclimation period of two weeks, animals were preferred on a high fat diet (HFD) (Ssniff Spezialdiäten GmbH, Germany, Surwit EF D12330 mod, Cat. No. E15771-34), with 60 kcal % from fat plus 1% (w/w) extra cholesterol (Sigma-Aldrich, St. Louis, Mo.) for 5 days. Animals were maintained on this diet during treatment with LXR modulators. The test compounds were formulated in 0.5% hydroxypropylmethylcellulose (HPMC) and administered in three doses (from 1.5 to 20 mg/kg each) by oral gavage according to the following schedule: on day one, animals received treatment in the morning and the evening (ca. 17:00), on day two animals received the final treatment in the morning after a 4 h fast and were sacrificed 4 h thereafter. Animal work was conducted according to the national guidelines for animal care in Germany.
Upon termination, liver was collected, dipped in ice cold PBS for 30 seconds and cut into appropriate pieces. Pieces were snap frozen in liquid nitrogen and stored at −80° C. For the clinical chemistry analysis from plasma, alanine aminotransferase (ALT, IU/mL), cholesterol (CHOL, mg/dL) and triglycerides (TG, mg/dL) were determined using a fully-automated bench top analyzer (Respons®910, DiaSys Greiner GmbH, Flacht, Germany) with system kits provided by the manufacturer.

full length (FL) LXRα = target: T3, full length (FL) LXRα (Homo sapiens, UniProt Q13133); assay: LXR Gal4 reporter transient transfection assay (FL-M2H Gal4α); assay type: cell-based; details: HEK293 cells, full length LXRα; read-out: FL-M2H Gal4α (EC50 range)
T3 construct: the full length (FL) proteins of LXRα (amino acids 1-447); NP005684; expressed in transfected cells; host or cells: HEK293
T3 sequence (Q13133 1-447): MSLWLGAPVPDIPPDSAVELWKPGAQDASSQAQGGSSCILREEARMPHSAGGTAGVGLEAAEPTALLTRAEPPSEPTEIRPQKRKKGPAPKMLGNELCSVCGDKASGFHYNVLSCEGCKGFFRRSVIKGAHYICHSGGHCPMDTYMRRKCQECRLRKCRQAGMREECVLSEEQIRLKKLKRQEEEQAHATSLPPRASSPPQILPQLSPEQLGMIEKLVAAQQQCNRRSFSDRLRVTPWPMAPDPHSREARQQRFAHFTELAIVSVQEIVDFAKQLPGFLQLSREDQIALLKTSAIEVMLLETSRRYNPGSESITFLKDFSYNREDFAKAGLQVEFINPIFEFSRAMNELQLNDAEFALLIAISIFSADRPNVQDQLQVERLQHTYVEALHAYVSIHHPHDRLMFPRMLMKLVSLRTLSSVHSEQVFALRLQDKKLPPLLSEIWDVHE
Summary of the method: as §1

Row | Compound | EC50 (full length (FL) LXRβ) [nM] | EC50 [1] [nM] | liver exposure 4 h [2] | liver/plasma ratio 4 h [2] | plasma exposure 4 h [2] | EC50 (full length (FL) LXRα) [nM]
1 | N#Cc1sccc1-c1c(-c2cccc(-c3ccc(C(=O)O)cc3Cl)c2)n(S(=O)(=O)c2ccc(C(F)F)cc2)c2ccc(F)cc12 [11/17] | < 100 | < 100 | D (>10 μM) | C (30 to ≤100) | C (C: 100 nM to <300 nM) | –
2 | O=C(O)C1CC1c1cccc(-c2c(-c3c(Cl)cccc3Cl)c3cc(F)ccc3n2S(=O)(=O)c2ccc(C(F)F)cc2)c1 (centres unmarked) [11/69] | < 100 | < 100 | – | – | – | < 100
3 | Cc1ccc(S(=O)(=O)n2c(-c3cccc(-c4ccc(C(=O)O)c(C)c4Cl)c3)c(-c3ccsc3C#N)c3cc(F)ccc32)cc1 [12/1] | < 100 | 100 to 1000 | – | – | – | < 100
4 | Cc1ccc(S(=O)(=O)n2c(-c3cccc(-c4cc(F)c(C(=O)O)cc4Cl)c3)c(-c3ccsc3C#N)c3cc(F)ccc32)cc1 [12/2] | < 100 | 100 to 1000 | – | – | – | < 100
5 | Cc1ccc(S(=O)(=O)n2c(-c3cccc(-c4ccc(C(=O)O)c(F)c4Cl)c3)c(-c3ccsc3C#N)c3cc(F)ccc32)cc1 [12/3] | < 100 | 100 to 1000 | – | – | – | < 100
6 | COc1cc(-c2cccc(-c3c(-c4ccsc4C#N)c4cc(F)ccc4n3S(=O)(=O)c3ccc(C)cc3)c2)c(Cl)cc1C(=O)O [12/4] | < 100 | 100 to 1000 | – | – | – | < 100
7 | COc1c(C(=O)O)ccc(-c2cccc(-c3c(-c4ccsc4C#N)c4cc(F)ccc4n3S(=O)(=O)c3ccc(C)cc3)c2)c1Cl [12/5] | < 100 | < 100 | – | – | – | < 100
8 | Cc1ccc(S(=O)(=O)n2c(-c3cccc(-c4cc(C(=O)O)n[nH]4)c3)c(-c3ccsc3C#N)c3cc(F)ccc32)cc1 [12/6] | 1000 to 10000 | 1000 to 10000 | – | – | – | 100 to 1000
9 | Cc1ccc(S(=O)(=O)n2c(-c3cccc(-c4cc(C(=O)O)nn4C)c3)c(-c3ccsc3C#N)c3cc(F)ccc32)cc1 [12/7] | 100 to 1000 | 100 to 1000 | – | – | – | 100 to 1000
10 | Cc1ccc(S(=O)(=O)n2c(-c3cccc(-c4cc(C(=O)O)nn4C(C)C)c3)c(-c3ccsc3C#N)c3cc(F)ccc32)cc1 [12/8] | 100 to 1000 | 1000 to 10000 | – | – | – | 100 to 1000
11 | Cc1ccc(S(=O)(=O)n2c(-c3cccc(-c4ccc5c(C(=O)O)n[nH]c5c4)c3)c(-c3ccsc3C#N)c3cc(F)ccc32)cc1 [12/9] | 100 to 1000 | 100 to 1000 | – | – | – | 100 to 1000
